{"source": "patent US12186304B2", "about": "“Method for treating cancer by combination of IAP inhibitor and modulator of immune checkpoint molecule” (ASCENTAGE PHARMA (SUZHOU) CO., LTD., priority 2018, dated 2025)", "key": {"[1]": {"tested_on": "CT26 colorectal cancer", "assay": "Combination therapy in CT26 mouse colorectal cancer model", "format": "in vivo", "conditions": "for T/C (%) value on day 18 after administration: APG-1387 0.2 mg/kg i.v. once daily, docetaxel 8 mg/kg i.p. once weekly, anti-PD-1 200 μg/mouse i.p. twice weekly", "description": "Cell inoculation method was used to establish a […] tumor-immunized normal mouse subcutaneous homograft tumor model: tumor cells in logarithmic growth phase were collected, counted, and then resuspended in 1×PBS. The concentration of the cell suspension was adjusted to 2.5-5×10^7/mL. Tumor cells, 5-10×10^6/0.2 mL/mouse, were inoculated subcutaneously in the right back of the immunized normal mouse with a 1 mL syringe ([…]). All animal experimental operations were strictly in accordance with standards for use and management of laboratory animals by Gima Gene Co., Ltd and Suzhou Yasheng Pharmaceutical Co., Ltd. Relevant parameters were calculated with reference to China's NMPA “Guidelines for Non-clinical Research Techniques of Cytotoxic Antitumor Drugs”.\nAnimal weight and tumor size were measured twice a week during the experiment. Animals were observed daily for status and the occurrence of death. Routine monitoring included the effects of tumor growth and treatment on the normal behaviors of animals, specifically including the activity, feeding and drinking, weight gain or loss, eyes, clothing hair, as well as other abnormalities of the laboratory animals. The deaths and clinical symptoms observed during the experiment were recorded in the original data. The whole process of administration, measurement of mouse weight and tumor volume was carried out in an ultra-clean bench. According to requirements of the experimental program, plasma and tumor tissue were collected, weighed and photographed for record after the end of last administration. Plasma and tumor samples were frozen at −80° C. for later use.\nTumor volume (TV) was calculated as TV=a×b^2/2, wherein a and b represented the length and width of tumor measurement, respectively.\nRelative tumor volume (RTV) was calculated as RTV=Vt/V1, wherein V1 was the tumor volume at the time of grouping administration, and Vt was the tumor volume measured on day t after administration.\nThe evaluation index of anti-tumor activity was relative tumor proliferation rate T/C (%), and was calculated as: relative tumor proliferation rate T/C (%)=(TRTV/CRTV)×100%, wherein TRTV was RTV in treatment group, and CRTV was RTV in vehicle control group.\nTumor remission rate (%) was the number of SD (stable disease), PR (partial regression) and CR (complete regression) in tumor-bearing mice after treatment divided by the total number of mice in that group×100%. CR refers to the complete regression of the tumor, which means the tumor is inaccessible after treatment. PR refers to the partial regression of the tumor, which means tumor volume becomes smaller than before treatment. SD refers to stable tumor progression, which means tumor volume is the same as before treatment. Change of body weight (%)=(measurement of body weight−body weight when grouping)/body weight when grouping×100%.\nEfficacy evaluation criteria: according to China's NMPA “Guidelines for Non-clinical Research Techniques of Cytotoxic Antitumor Drugs” (November 2006), T/C (%) value 40% and p<0.05 by statistical analysis were considered as efficacious. If the weight loss of mice exceeded 20%, or the drug-related death percentage exceeded 20%, the drug dose was considered to be severely toxic.\nAccording to Clarke R., Issues in experimental design and endpoint analysis in the study of experimental cytotoxic agents in vivo in breast cancer and other models [J].\nA tumor model of CT26 colorectal cancer mouse was established, and the combined anti-tumor effect of APG-1387 with anti-PD-1 antibody and docetaxel was evaluated on this model. The administration regimen was as follows:\nAPG-1387 monotherapy group: 0.2 mg/kg, intravenous injection, once daily for a total of 17 days;\nDocetaxel monotherapy group: 8 mg/kg, intraperitoneal injection, once weekly for a total of 17 days;\nAnti-PD-1 antibody monotherapy group: 200 μg/mouse, intraperitoneal injection, twice weekly for a total of 2.5 weeks (i.e., 17 days); […]"}, "[2]": {"tested_on": "murine A20 lymphoma cells", "assay": "Subcutaneous xenograft model of murine A20 lymphoma", "format": "in vivo, female BALB/c mice", "conditions": "A20 s.c.", "description": "• (1) APG-1387: provided by Jiangsu Ascentage Pharmaceutical Development Co., Ltd. The batch number is R12JA076140-A2 and PAPG-1387-DP-201305A. Preserved at 4° C., away from the light and sealed. APG-1387 was administered intravenously (i.v.) or intraperitoneally (i.p.) or at a dosage of 10 mL/kg. APG-1387 was dissolved in 5% castor oil/10% PEG400/85% normal saline. • (2) Anti-PD-1 antibody: purchased from BioXcell. The article number is BE0146 and BE0273. Preserved at 4° C. and sealed. The anti-PD-1 antibody was administered intraperitoneally at a concentration of 100 μg per mice or 200 μg per mice. • (3) Isotype control (anti-IgG): purchased from BioXcell, the product number is BE0089. Preserved at 4° C. and sealed. […]\nThe mice were injected subcutaneously with 0.5-10×10^6 cells or in the ovary with 6×10^6 cells in situ to build the tumor xenograft model. […] For the orthotopic model, tumor growth was measured by examining in vivo fluorescence images 10 days after inoculation. […] Body weight and tumor size were measured twice per week during the experiment. […]\nThe calculation of tumor related parameters is the same as set forth in Example 1. Using the fluorescence imaging technique, the strength of the fluorescent signal can represent the growth and metastasis of tumors in vivo. […]"}}, "data": [{"smiles": "CC(=O)O[C@@]12CO[C@@H]1C[C@H](O)[C@@]1(C)C(=O)[C@H](O)C3=C(C)[C@@H](OC(=O)[C@H](O)[C@@H](NC(=O)OC(C)(C)C)c4ccccc4)C[C@@](O)([C@@H](OC(=O)c4ccccc4)[C@H]21)C3(C)C", "note": "[Docetaxel, docetaxel]", "values": [{"measurement": "T/C (%) value on day 18 after administration", "setting": "[1]", "result": 66, "unit": "%"}, {"measurement": "T/C (%) value on day 18 after administration", "setting": "[1]; listed as docetaxel", "result": 66, "unit": "%"}, {"measurement": "Tumor remission rate on day 18 after administration (%)", "setting": "[1]; day 18", "result": 25, "unit": "%"}, {"measurement": "Tumor remission rate on day 18 after administration: animals with SD/PR/CR per animals in group", "setting": "[1]; day 18", "result": "1/4 SD"}, {"measurement": "Tumor remission rate on day 18 after administration: animals with SD/PR/CR per animals in group", "setting": "[1]; day 18, listed as docetaxel", "result": "¼"}, {"measurement": "anti-tumor effect on the 24th day after administration", "setting": "[2]", "result": "not significant"}]}]}
